Data taken from patent publication US9328083B2, “2-aminated methylene or 2-esterified methylene tanshinone derivatives, and preparation method and application thereof” (HANGZHOU BENSHENG PHARMACEUTICAL CO., LTD., priority 2011, dated 2016).
In brackets after ≈: the same amount, converted by molar mass.

Tests used:
[1] = tested on: NB4 (acute promyelocytic leukemia, AML); experiment: MTT growth inhibition of leukemia cells, 72 h; type: cell-based, human; settings: Homo sapiens, NB4, 72 h; for IC50: read-out: IC50; for IC90: read-out: IC90
Procedure, shortened: (§1)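 MTT assay of viable cells following 72 h compound treatment at 37 °C. Cultures contained 6000 cells per well in RPMI-1640 plus 10% fetal bovine serum.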

[2] = tested on: Kasumi-1 (acute myeloid leukemia M2 type, AML-M2); experiment: MTT growth inhibition of leukemia cells, 72 h; type: cell-based, human; settings: Homo sapiens, Kasumi-1, 72 h; for IC50: read-out: IC50; for IC90: read-out: IC90
Procedure, shortened: as §1

[3] = tested on: Jurkat (acute lymphoblastic leukemia, ALL); experiment: MTT growth inhibition of leukemia cells, 72 h; type: cell-based, human; settings: for IC50 / IC90: Homo sapiens, 72 h; for IC50: read-out: IC50; for IC90: read-out: IC90
Procedure, shortened: as §1

[4] = tested on: H9 (acute lymphoblastic leukemia, ALL); experiment: MTT growth inhibition of leukemia cells, 72 h; type: cell-based, human; settings: Homo sapiens, H9, 72 h; for IC50: read-out: IC50; for IC90: read-out: IC90
Procedure, shortened: as §1

[5] = tested on: K562/adr (drug-resistant, chronic myeloid leukemia, CML); experiment: MTT growth inhibition of leukemia cells, 72 h; type: cell-based, human; settings: Homo sapiens, K562/Adr; for IC50: read-out: IC50; for IC90: read-out: IC90
Procedure, shortened: as §1

[6] = tested on: RPMI8226 (multiple myeloma); experiment: MTT growth inhibition of multiple myeloma cells, 72 h; type: cell-based, human; settings: Homo sapiens, RPMI 8226, 72 h; for IC50: read-out: IC50; for IC90: read-out: IC90
Procedure, shortened: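 RPMI8226 myeloma cells, 6000 per well in 1640 medium with 10% FBS, exposed to compounds at a range of concentrations (diluted from 10 mg/mL DMSO stock) for 72 h at 37° C, 5% CO2. Viable cells then determined by MTT.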

[7] = tested on: Hep G2 (human liver cancer cell); experiment: MTT growth inhibition of human solid tumor cells, 72 h; type: cell-based; settings: Homo sapiens, HepG2, Hep G2, 72 h; for IC50: read-out: IC50; for IC90: read-out: IC90
Procedure, shortened: (§2)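 Tanshinone I and its aminated or esterified methylene derivatives were tested on cells grown in 10% FBS high-glucose DMEM, seeded at 4000 per well and incubated at 37° C with 5% CO2 for 24 h before treatment.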

[8] = tested on: Becap37 (human breast cancer cell); experiment: as above; type: cell-based; settings: Homo sapiens, Becap-37, 72 h; for IC50: read-out: IC50; for IC90: read-out: IC90
Procedure, shortened: as §2

[9] = tested on: Hep-2 (laryngeal carcinoma); experiment: as above; type: cell-based; settings: Homo sapiens, HEp-2, 72 h; for IC50: read-out: IC50; for IC90: read-out: IC90
Procedure, shortened: as §2

[10] = tested on: CNE (nasopharyngeal carcinoma cell); experiment: as above; type: cell-based; settings: Homo sapiens; for IC50: read-out: IC50; for IC90: read-out: IC90
Procedure, shortened: as §2

[11] = tested on: U87 MG (malignant glioma cell); experiment: as above; type: cell-based; settings: Homo sapiens, U-87 MG, U87-MG, 72 h; for IC50: read-out: IC50; for IC90: read-out: IC90
Procedure, shortened: as §2

[12] = tested on: Hela (human cervical cancer cell); experiment: as above; type: cell-based; settings: Homo sapiens, HeLa, 72 h; for IC50: read-out: IC50; for IC90: read-out: IC90
Procedure, shortened: as §2

[13] = tested on: PC-3 (prostate cancer); experiment: as above; type: cell-based; settings: Homo sapiens, PC-3, 72 h; for IC50: read-out: IC50; for IC90: read-out: IC90
Procedure, shortened: as §2

[14] = tested on: CaES-17 (esophageal cancer cell); experiment: as above; type: cell-based; settings: for IC50 / IC90: Homo sapiens, CaEs17, CaEs-17, 72 h; for IC50: read-out: IC50; for IC90: read-out: IC90
Procedure, shortened: as §2

[15] = tested on: MGC 803 (human gastric cancer cell); experiment: as above; type: cell-based; settings: Homo sapiens, MGC-803, 72 h; for IC50: read-out: IC50; for IC90: read-out: IC90
Procedure, shortened: as §2

[16] = tested on: SK-OV-3 (ovarian cancer cell); experiment: as above; type: cell-based; settings: Homo sapiens, SK-OV-3, 72 h; for IC50: read-out: IC50; for IC90: read-out: IC90
Procedure, shortened: as §2

[17] = tested on: RKO (human colon adenocarcinoma cell); experiment: as above; type: cell-based; settings: Homo sapiens; for IC50: read-out: IC50; for IC90: read-out: IC90
Procedure, shortened: as §2

[18] = tested on: MG63 (osteosarcoma); experiment: as above; type: cell-based; settings: Homo sapiens, MG-63, 72 h; for IC50: read-out: IC50; for IC90: read-out: IC90
Procedure, shortened: as §2

[19] = tested on: PANC-1 (pancreatic cancer); experiment: as above; type: cell-based; settings: for IC50 / IC90: Homo sapiens, PANC-1, 72 h; for IC50: read-out: IC50; for IC90: read-out: IC90
Procedure, shortened: as §2

[20] = tested on: A549 (human lung cancer); experiment: as above; type: cell-based; settings: Homo sapiens, A549, 72 h; for IC50: read-out: IC50; for IC90: read-out: IC90
Procedure, shortened: as §2

`Cc1c(CN(C)CCO)oc2c1C(=O)C(=O)c1c-2ccc2c(C)cccc12` [BS-TA-B17] was tested, and the IC50 [1] was 0.14 µg/mL (≈ 0.385 µM), the IC90 [1] was 0.41 µg/mL (≈ 1.13 µM) and the IC50 [2] was 0.12 µg/mL (≈ 0.33 µM). It also gave an IC90 [2] of 0.23 µg/mL (≈ 0.633 µM), an IC50 [3] of 0.16 µg/mL (≈ 0.44 µM) and an IC90 [3] of 0.36 µg/mL (≈ 0.991 µM). For the same compound, the “improvement of anti-Jurkat activity as compared with tanshinone I” value ([3]; vs tanshinone I) was “more than 10 fold”, the IC50 [4] was 0.45 µg/mL (≈ 1.24 µM) and the IC90 [4] was 0.96 µg/mL (≈ 2.64 µM). For the same compound, the IC50 [5] was 0.31 µg/mL (≈ 0.853 µM), the IC90 [5] was 0.86 µg/mL (≈ 2.37 µM) and the IC50 [6] was 0.39 µg/mL (≈ 1.07 µM). For the same compound, the IC90 [6] was 0.8 µg/mL (≈ 2.2 µM), the IC50 [7] was 0.56 µg/mL (≈ 1.54 µM) and the IC90 [7] was 1.82 µg/mL (≈ 5.01 µM). It also gave an IC50 [8] of 0.76 µg/mL (≈ 2.09 µM), an IC90 [8] of 1.77 µg/mL (≈ 4.87 µM) and an IC50 [9] of 0.87 µg/mL (≈ 2.39 µM). The IC90 [9] was 2.79 µg/mL (≈ 7.68 µM), the IC50 [10] was 1.4 µg/mL (≈ 3.85 µM) and the IC90 [10] was 3 µg/mL (≈ 8.26 µM). It also gave an IC50 [11] of 0.76 µg/mL (≈ 2.09 µM), an IC90 [11] of 1.82 µg/mL (≈ 5.01 µM) and an IC50 [12] of 0.67 µg/mL (≈ 1.84 µM). It also gave an IC90 [12] of 1.8 µg/mL (≈ 4.95 µM), an IC50 [13] of 0.63 µg/mL (≈ 1.73 µM) and an IC90 [13] of 2 µg/mL (≈ 5.5 µM). The “improvement of anti-CaES-17 activity as compared with tanshinone I” value ([14]; CaES-17, vs tanshinone I) was “more than 7 fold”, the IC50 [14] was 0.45 µg/mL (≈ 1.24 µM) and the IC90 [14] was 0.91 µg/mL (≈ 2.5 µM). The IC50 [15] was 0.37 µg/mL (≈ 1.02 µM), the IC90 [15] was 2.94 µg/mL (≈ 8.09 µM) and the IC50 [16] was 1.44 µg/mL (≈ 3.96 µM). The IC90 [16] was 1.97 µg/mL (≈ 5.42 µM), the IC50 [17] was 0.125 µg/mL (≈ 0.344 µM) and the IC90 [17] was 1.3 µg/mL (≈ 3.58 µM). The IC50 [18] was 0.78 µg/mL (≈ 2.15 µM), the IC90 [18] was 1.76 µg/mL (≈ 4.84 µM) and the IC50 [19] was 0.27 µg/mL (≈ 0.743 µM). The IC90 [19] was 2.6 µg/mL (≈ 7.15 µM), the “improvement of anti-PANC-1 activity as compared with tanshinone I” value ([19]; PANC-1, vs tanshinone I) was “more than 10 fold” and the IC50 [20] was 0.83 µg/mL (≈ 2.28 µM). For the same compound, the IC90 [20] was 3.13 µg/mL (≈ 8.61 µM).
With `Cc1c(CN(C)CCOC(=O)CNC(=O)OC(C)(C)C)oc2c1C(=O)C(=O)c1c-2ccc2c(C)cccc12` [BS-TA-72] the IC50 [1] was 0.35 µg/mL (≈ 0.672 µM), the IC90 [1] was 0.71 µg/mL (≈ 1.36 µM) and the IC50 [2] was 0.28 µg/mL (≈ 0.538 µM). For the same compound, the IC90 [2] was 0.47 µg/mL (≈ 0.903 µM), the IC50 [3] was 0.31 µg/mL (≈ 0.595 µM) and the IC90 [3] was 0.99 µg/mL (≈ 1.9 µM). It also gave an IC50 [4] of 0.45 µg/mL (≈ 0.864 µM), an IC90 [4] of 1.6 µg/mL (≈ 3.07 µM) and an IC50 [5] of 1.5 µg/mL (≈ 2.88 µM). The IC90 [5] was 2 µg/mL (≈ 3.84 µM), the IC50 [6] was 0.12 µg/mL (≈ 0.231 µM) and the IC90 [6] was 0.87 µg/mL (≈ 1.67 µM). The IC50 [7] was 0.71 µg/mL (≈ 1.36 µM), the IC90 [7] was 3.85 µg/mL (≈ 7.4 µM) and the IC50 [8] was 1.02 µg/mL (≈ 1.96 µM). For the same compound, the IC90 [8] was 1.94 µg/mL (≈ 3.73 µM), the IC50 [9] was 1.59 µg/mL (≈ 3.05 µM) and the IC90 [9] was 3.77 µg/mL (≈ 7.24 µM). The IC50 [10] was 2.02 µg/mL (≈ 3.88 µM), the IC90 [10] was 3.61 µg/mL (≈ 6.93 µM) and the IC50 [11] was 1.46 µg/mL (≈ 2.8 µM). The IC90 [11] was 3.65 µg/mL (≈ 7.01 µM), the IC50 [12] was 0.89 µg/mL (≈ 1.71 µM) and the IC90 [12] was 1.84 µg/mL (≈ 3.53 µM). The IC50 [13] was 1.68 µg/mL (≈ 3.23 µM), the IC90 [13] was 9.92 µg/mL (≈ 19.1 µM) and the IC50 [14] was 1.84 µg/mL (≈ 3.53 µM). It also gave an IC90 [14] of 3.98 µg/mL (≈ 7.65 µM), an IC50 [15] of 1.5 µg/mL (≈ 2.88 µM) and an IC90 [15] of 9.94 µg/mL (≈ 19.1 µM). It also gave an IC50 [16] of 5.91 µg/mL (≈ 11.4 µM), an IC90 [16] of 10.9 µg/mL (≈ 21 µM) and an IC50 [17] of 0.25 µg/mL (≈ 0.48 µM). The IC90 [17] was 2.38 µg/mL (≈ 4.57 µM), the IC50 [18] was 1.08 µg/mL (≈ 2.07 µM) and the IC90 [18] was 2.56 µg/mL (≈ 4.92 µM). It also gave an IC50 [19] of 0.75 µg/mL (≈ 1.44 µM), an IC90 [19] of 8.96 µg/mL (≈ 17.2 µM) and an IC50 [20] of 1.07 µg/mL (≈ 2.06 µM). For the same compound, the IC90 [20] was 3.7 µg/mL (≈ 7.11 µM).
